Data taken from ChEMBL document CHEMBL1201862, “PubChem BioAssay data set” (2004).
Active and inactive are the calls of the source.

Experiments:
[1] = target: Sphingosine 1-phosphate receptor 5 (Homo sapiens, UniProt Q9H228); assay: Late stage counterscreen assay for S1P4 antagonists: Fluorescence dose response cell-based screening assay for antagonists of the Sphingosine 1-Phosphate Receptor 5 (S1P5). [Related pubchem assays (depositor defined):AID1510, AID1524, AID1692, AID1853, AID2332, AID489009, AID489017]; assay type: functional
[2] = target: T1, Sphingosine 1-phosphate receptor 4 (Homo sapiens, UniProt O95977); assay: potency of S1P4 blockers – cell-based, fluorescence, synthesized analogues, late-stage follow-up (AID 2346); assay type: functional
T1 sequence (O95977 whole entry): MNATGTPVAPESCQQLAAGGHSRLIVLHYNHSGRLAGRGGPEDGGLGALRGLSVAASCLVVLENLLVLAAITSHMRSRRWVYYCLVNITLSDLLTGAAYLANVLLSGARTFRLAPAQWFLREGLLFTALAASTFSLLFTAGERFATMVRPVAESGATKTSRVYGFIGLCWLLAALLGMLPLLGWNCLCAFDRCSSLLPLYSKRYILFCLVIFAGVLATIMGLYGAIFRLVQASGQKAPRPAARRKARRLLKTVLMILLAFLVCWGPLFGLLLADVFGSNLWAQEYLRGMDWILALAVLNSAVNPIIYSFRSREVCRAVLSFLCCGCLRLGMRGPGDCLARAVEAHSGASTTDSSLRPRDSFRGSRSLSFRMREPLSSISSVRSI

[3] = target: Sphingosine 1-phosphate receptor 2 (Homo sapiens, UniProt O95136); assay: Late stage counterscreen assay for S1P4 antagonists: Fluorescence dose response cell-based screening assay for antagonists of the Sphingosine 1-Phosphate Receptor 2 (S1P2). [Related pubchem assays (depositor defined):AID1510, AID1524, AID1692, AID1853, AID2332, AID489009, AID489017]; assay type: functional
[4] = target: Sphingosine 1-phosphate receptor 1 (Homo sapiens, UniProt P21453); assay: Late stage counterscreen assay for S1P4 antagonists: Fluorescence dose response cell-based screening assay for antagonists of the Sphingosine 1-Phosphate Receptor 1 (S1P1). [Related pubchem assays (depositor defined):AID1510, AID1524, AID1692, AID1853, AID2332, AID489009, AID489017]; assay type: functional
[5] = target: Sphingosine 1-phosphate receptor 3 (Homo sapiens, UniProt Q99500); assay: Late stage counterscreen assay for S1P4 antagonists: Fluorescence dose response cell-based screening assay for antagonists of the Sphingosine 1-Phosphate Receptor 3 (S1P3). [Related pubchem assays (depositor defined):AID1510, AID1524, AID1692, AID1853, AID2332, AID489009, AID489017]; assay type: functional
[6] = target: SUMO E1/E2 (Homo sapiens, UniProt P63279+Q9UBE0+Q9UBT2); assay: SAR analysis of SUMOylation using HTRF in an in-Vitro dose response assay. [Related pubchem assays (depositor defined):AID2006, AID2011, AID2018, AID2069, AID2658]; assay type: functional
[7] = target: T2, Voltage-gated N-type calcium channel alpha-1B subunit/Amyloid beta A4 precursor protein-binding family A member 1 (Homo sapiens, UniProt Q00975+Q02410); assay: disruptors of Mint-PDZ/N-type channel peptide interaction – biochemical, HTRF, set 2, SAR follow-up (AID 434980); assay type: functional
[8] = target: T2, Voltage-gated N-type calcium channel alpha-1B subunit/Amyloid beta A4 precursor protein-binding family A member 1; assay: disruptors of Mint-PDZ/N-type channel peptide interaction – biochemical, HTRF, SAR follow-up (AID 2489); assay type: functional
[9] = microbe, parasite or virus in culture; assay type: functional; conditions: Mycobacterium tuberculosis
[10] = THP-1 cell cytotoxicity, dose response, cytotoxicity control for non-replicating M. tuberculosis project (AID 489025); assay type: functional
[11] = cells; assay type: functional
[12] = system: BJ; assay: BJ-TERT-LT-ST fibroblast viability loss – cell-based, RAS-independent, luminescence, dose response (AID 1935); assay type: functional; conditions: Homo sapiens;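 also: BJ fibroblasts immortalized with TERT plus LT and ST oncogenes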
[13] = target: Lysine-specific demethylase 4C (Homo sapiens, UniProt Q9H3R0); assay: inhibition of JMJD2C H3K9me3 demethylation – biochemical, DELFIA europium, cherry-picked samples, dose response (AID 488835); assay type: functional
[14] = DRD fibroblast viability loss – cell-based, non-viral oncogenic, luminescence, dose response (AID 1934); assay type: functional; conditions: Homo sapiens
[15] = Vero E6 cell cytotoxicity, dose response, cytotoxicity control for non-replicating M. tuberculosis project, secondary assay (AID 492998); assay type: functional, VeroE6; conditions: Vero C1008
[16] = system: BJ; assay: cells; assay type: functional, cell-based; conditions: Homo sapiens
[17] = target: Nonstructural protein 1 (Influenza A virus, UniProt Q194T2); assay type: functional, Influenza A virus (A/California/07/2009(H1N1))
[18] = target: Lysine-specific demethylase 4A (Homo sapiens, UniProt O75164); assay: inhibition of JMJD2A H3K9me3 demethylation – biochemical, DELFIA europium, cherry-picked samples, selectivity assay for GASC-1 inhibitor project, dose response (AID 488840)
[19] = system: BJ; assay: BJ-TERT fibroblast viability loss – cell-based, RAS-independent, luminescence, dose response (AID 1933); assay type: functional; conditions: Homo sapiens
[20] = system: INS1; assay: INS-1E survival protection against cytokine death – cell-based, luminescence, retest, dose response (AID 449756); assay type: functional; conditions: Rattus norvegicus;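 also: cell death triggered by IL-1 beta plus TNF-alpha plus IFN-gamma mixture; protective hits raise ATP signal compared with cytokine alone wells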

T2 sequence (Q00975 whole entry): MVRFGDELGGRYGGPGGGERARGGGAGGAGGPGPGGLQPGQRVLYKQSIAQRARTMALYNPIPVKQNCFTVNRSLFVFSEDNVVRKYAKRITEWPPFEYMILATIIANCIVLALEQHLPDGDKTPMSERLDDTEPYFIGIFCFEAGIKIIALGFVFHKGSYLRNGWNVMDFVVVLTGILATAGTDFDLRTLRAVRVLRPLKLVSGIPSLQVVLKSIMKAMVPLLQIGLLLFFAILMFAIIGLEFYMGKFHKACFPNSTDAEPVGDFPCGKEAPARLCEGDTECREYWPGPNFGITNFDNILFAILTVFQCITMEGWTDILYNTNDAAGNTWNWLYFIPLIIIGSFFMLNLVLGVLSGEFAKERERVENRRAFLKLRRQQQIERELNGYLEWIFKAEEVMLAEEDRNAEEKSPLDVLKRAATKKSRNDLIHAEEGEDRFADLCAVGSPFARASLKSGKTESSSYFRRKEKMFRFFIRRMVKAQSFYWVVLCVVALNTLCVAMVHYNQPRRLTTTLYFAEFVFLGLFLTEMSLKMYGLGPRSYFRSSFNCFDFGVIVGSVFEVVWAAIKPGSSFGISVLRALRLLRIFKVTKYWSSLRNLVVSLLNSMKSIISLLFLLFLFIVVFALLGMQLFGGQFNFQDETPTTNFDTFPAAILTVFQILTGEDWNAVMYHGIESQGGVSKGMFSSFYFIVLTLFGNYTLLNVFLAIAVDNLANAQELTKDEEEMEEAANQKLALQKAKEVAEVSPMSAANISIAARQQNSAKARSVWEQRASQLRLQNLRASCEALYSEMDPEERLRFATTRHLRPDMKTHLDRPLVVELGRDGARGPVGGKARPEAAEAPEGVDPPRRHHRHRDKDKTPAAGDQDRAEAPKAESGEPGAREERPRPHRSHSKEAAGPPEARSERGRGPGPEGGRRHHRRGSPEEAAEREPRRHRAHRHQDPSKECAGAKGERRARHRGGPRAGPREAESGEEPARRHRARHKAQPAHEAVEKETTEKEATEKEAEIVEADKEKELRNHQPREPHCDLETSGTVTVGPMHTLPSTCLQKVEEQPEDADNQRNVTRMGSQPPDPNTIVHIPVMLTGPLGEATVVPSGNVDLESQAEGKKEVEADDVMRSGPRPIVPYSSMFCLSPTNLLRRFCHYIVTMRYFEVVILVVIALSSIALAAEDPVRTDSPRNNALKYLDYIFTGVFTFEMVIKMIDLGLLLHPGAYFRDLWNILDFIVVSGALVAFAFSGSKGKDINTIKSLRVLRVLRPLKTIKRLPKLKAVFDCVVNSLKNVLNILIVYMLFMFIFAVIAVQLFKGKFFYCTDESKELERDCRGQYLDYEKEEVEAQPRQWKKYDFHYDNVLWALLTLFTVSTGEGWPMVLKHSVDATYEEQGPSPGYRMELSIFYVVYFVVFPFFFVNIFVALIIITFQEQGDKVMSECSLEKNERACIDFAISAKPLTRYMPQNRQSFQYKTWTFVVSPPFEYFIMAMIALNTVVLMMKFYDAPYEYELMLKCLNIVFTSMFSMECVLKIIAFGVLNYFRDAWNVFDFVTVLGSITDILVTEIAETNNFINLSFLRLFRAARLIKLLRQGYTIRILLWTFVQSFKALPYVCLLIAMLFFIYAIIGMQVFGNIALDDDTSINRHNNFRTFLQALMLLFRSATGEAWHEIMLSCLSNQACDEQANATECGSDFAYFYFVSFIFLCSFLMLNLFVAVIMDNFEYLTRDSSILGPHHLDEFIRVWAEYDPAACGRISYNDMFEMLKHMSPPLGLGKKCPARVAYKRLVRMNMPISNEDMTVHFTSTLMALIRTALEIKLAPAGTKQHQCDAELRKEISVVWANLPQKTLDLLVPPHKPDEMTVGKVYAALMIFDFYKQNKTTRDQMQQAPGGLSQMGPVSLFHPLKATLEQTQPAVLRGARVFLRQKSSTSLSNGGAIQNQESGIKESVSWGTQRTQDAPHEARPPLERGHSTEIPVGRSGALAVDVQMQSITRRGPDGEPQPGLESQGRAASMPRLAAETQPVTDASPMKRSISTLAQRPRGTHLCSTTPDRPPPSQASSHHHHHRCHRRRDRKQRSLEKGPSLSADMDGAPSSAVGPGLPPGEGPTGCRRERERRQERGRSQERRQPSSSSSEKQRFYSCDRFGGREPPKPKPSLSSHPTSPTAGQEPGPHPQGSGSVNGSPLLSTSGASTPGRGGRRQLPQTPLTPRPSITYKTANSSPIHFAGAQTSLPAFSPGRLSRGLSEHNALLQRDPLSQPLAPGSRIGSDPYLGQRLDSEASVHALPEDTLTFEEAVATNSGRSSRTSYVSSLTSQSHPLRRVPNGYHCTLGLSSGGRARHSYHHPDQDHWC
T2 sequence (Q02410 whole entry): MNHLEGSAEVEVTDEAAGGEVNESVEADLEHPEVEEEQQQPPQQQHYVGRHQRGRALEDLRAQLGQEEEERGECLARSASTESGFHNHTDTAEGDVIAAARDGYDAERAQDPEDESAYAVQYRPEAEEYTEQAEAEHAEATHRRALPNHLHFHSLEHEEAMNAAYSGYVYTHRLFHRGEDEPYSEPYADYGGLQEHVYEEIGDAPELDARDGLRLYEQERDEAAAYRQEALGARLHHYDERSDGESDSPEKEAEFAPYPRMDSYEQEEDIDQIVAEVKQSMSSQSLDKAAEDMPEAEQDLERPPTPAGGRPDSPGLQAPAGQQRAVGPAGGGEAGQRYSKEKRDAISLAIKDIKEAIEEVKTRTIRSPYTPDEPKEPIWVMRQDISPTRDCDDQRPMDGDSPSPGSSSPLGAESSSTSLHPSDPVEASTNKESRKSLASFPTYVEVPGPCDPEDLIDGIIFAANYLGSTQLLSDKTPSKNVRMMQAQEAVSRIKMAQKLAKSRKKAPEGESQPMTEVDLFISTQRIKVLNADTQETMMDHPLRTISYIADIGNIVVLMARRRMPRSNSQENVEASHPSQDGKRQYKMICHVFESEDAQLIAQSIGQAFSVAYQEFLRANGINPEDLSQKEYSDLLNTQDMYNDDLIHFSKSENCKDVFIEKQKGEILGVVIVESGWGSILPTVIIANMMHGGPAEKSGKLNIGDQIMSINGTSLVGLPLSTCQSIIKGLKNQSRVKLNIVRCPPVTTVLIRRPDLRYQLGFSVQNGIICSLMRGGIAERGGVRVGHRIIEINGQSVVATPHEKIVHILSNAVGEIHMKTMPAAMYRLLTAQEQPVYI
Sphingosine 1-phosphate receptor 3, sequence (Q99500 whole entry): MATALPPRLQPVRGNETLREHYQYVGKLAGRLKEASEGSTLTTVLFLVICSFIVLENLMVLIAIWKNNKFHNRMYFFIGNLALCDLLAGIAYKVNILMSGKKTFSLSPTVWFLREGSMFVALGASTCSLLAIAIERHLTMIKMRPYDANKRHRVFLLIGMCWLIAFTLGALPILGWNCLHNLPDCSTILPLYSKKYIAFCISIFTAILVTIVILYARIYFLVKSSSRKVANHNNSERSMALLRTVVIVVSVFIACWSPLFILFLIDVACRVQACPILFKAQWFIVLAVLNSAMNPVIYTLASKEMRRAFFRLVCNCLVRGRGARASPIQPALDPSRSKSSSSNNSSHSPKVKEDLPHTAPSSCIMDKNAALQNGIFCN
Lysine-specific demethylase 4C, sequence (Q9H3R0 whole entry): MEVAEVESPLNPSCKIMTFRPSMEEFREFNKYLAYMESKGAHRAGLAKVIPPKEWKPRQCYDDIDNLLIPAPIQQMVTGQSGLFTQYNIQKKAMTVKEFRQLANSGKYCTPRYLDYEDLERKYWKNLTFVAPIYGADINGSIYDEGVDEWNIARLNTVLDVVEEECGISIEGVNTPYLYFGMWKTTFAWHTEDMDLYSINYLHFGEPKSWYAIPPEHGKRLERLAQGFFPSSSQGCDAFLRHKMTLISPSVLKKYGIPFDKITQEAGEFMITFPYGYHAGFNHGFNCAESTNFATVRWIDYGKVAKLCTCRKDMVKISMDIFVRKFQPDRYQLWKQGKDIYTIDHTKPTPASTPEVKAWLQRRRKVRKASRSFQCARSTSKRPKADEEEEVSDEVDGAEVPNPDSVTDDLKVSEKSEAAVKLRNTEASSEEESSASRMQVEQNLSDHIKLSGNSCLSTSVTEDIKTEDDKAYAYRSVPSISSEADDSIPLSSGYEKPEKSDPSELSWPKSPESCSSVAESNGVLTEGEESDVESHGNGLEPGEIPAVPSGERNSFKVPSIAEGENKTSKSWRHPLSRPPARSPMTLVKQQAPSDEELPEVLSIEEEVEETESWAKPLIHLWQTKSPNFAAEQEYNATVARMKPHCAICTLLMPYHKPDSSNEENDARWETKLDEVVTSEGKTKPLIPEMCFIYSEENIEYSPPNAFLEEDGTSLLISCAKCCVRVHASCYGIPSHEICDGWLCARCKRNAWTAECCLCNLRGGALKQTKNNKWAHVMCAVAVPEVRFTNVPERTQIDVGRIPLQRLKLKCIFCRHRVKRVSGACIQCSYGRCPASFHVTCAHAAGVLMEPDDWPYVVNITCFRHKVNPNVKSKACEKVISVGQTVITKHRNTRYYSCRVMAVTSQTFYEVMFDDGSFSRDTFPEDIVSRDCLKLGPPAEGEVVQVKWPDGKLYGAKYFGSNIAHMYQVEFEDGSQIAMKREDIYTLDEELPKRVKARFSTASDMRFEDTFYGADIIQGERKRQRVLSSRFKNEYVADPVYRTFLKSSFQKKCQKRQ
Sphingosine 1-phosphate receptor 1, sequence (P21453 whole entry): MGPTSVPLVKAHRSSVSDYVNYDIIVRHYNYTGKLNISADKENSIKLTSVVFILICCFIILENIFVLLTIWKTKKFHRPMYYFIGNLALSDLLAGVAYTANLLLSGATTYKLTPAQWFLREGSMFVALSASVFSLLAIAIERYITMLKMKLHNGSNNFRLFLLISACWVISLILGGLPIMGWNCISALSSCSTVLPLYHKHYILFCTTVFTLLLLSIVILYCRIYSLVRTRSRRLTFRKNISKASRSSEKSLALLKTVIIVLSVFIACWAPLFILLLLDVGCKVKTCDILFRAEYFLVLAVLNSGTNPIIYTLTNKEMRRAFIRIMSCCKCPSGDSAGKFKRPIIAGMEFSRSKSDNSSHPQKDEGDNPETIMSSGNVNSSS

CCc1cccc(C)c1NC(=O)c1ccc(-c2ccccc2Cl)o1
IC50 [1]: > 25 µM (inactive) | IC50 [2]: 0.269 µM (active) | IC50 [3]: > 25 µM (inactive) | IC50 [4]: > 25 µM (inactive) | IC50 [5]: > 25 µM (inactive)

CN(Cc1ccc(F)cc1)C(=O)COC(=O)c1cc(-c2ccco2)nc2ccccc12
IC50 [6]: 2.41 µM (active) | IC50 [7]: 11.5 µM (active) | IC50 [8]: 19.1 µM (active)

N#C/C(N=Nc1ccccc1O)=N\Nc1ccccc1O
CC50 [9]: 4.13 µM (active) | CC50 [10]: 3.15 µM (active) | IC50 [11]: 1.29 µM (active) | EC50 [12]: 6.76 µM (active) | AC50 [13]: 0.388 µM (active) | EC50 [14]: 8.75 µM (active) | CC50 [15]: 7.05 µM (active) | EC50 [16]: 7.91 µM (active) | IC50 [17]: 10.9 µM (active) | AC50 [18]: 3.37 µM (active) | EC50 [19]: 5.98 µM (active) | AC50 [20]: 2.3 µM (active)
